Measurements published in patent publication US20240150338A1, “COMPOUNDS AND USE THEREOF FOR TREATMENT OF NEURODEGENERATIVE, DEGENERATIVE AND METABOLIC DISORDERS” (University of Florida Research Foundation, Incorporated, priority 2021, published 2024).

Key:
[1] = tested on: PK1 neuroblastoma cells exposed to TPrP; experiment: cells; type: cell-based; details: Neuroblastoma cell, 96 h, read-out: TPrP EC50
[2] = Microsomal stability assay; type: in vitro ADME; details: 1 mg/ml human hepatic microsomes, 37° C., half-life by LC-MS/MS; yes = stability ≥15 minutes
Protocol: The metabolic stability of some test compounds was determined in hepatic human and mouse microsomes. The compound was incubated with 1 mg/ml human or mouse hepatic microsomes at 37° C. with continuous shaking. Aliquots were removed at various time points between 5 minutes and 2 hours and acetonitrile was added to quench the reactions and precipitate the proteins. Samples were then centrifuged through 0.45 μm filter plates and half-lives were determined by LC-MS/MS.

| Compound | EC50 [1] | Stabilty in human microsomes ≥ 15 minutes [2] |
| --- | --- | --- |
| NS(=O)(=O)c1ccc(Nc2nc(-c3ccncc3)c(CO)s2)cc1 [SR-28550, 4-((5-(Hydroxymethyl)-4-(pyridin-4-yl)thiazol-2-yl)amino)benzenesulfonamide] | 70 nM | yes |
| Cc1cc(-c2csc(Nc3ccc(S(N)(=O)=O)cc3)n2)ccn1 [SR-33124, 4-((4-(2-Methylpyridin-4-yl)thiazol-2-yl)amino)benzenesulfonamide] | 30 nM | yes |
| NS(=O)(=O)c1ccc(Nc2nc(-c3ccnc(Cl)c3)cs2)cc1 [SR-33125, 4-((4-(2-Chloropyridin-4-yl)thiazol-2-yl)amino)benzenesulfonamide] | 35 nM | yes |
| Cc1cc(-c2csc(Nc3ccc(S(=O)(=O)O)cc3)n2)ccn1 [SR-33126, 4-((4-(2-Methylpyridin-4-yl)thiazol-2-Yl)amino)benzenesulfonic acid] | 25 nM | yes |
| Cc1cc(-c2csc(Nc3ccc(S(C)(=O)=O)c(Cl)c3)n2)ccn1 [SR-33127, N-(3-chloro-4-(methylsulfonyl)phenyl)-4-(2-methylpyridin-4-yl)thiazol-2-amine] | 25 nM | yes |
| O=S(=O)(O)c1ccc(Nc2nc(-c3ccnc(Cl)c3)cs2)cc1 [SR-33128, 4-((4-(2-Chloropyridin-4-yl)thiazol-2-yl)amino)benzenesulfonic acid] | > 500 nM | yes |
| CS(=O)(=O)c1ccc(Nc2nc(-c3ccnc(Cl)c3)cs2)cc1Cl [SR-33129, N-(3-chloro-4-(methylsulfonyl)phenyl)-4-(2-chloropyridin-4-yl)thiazol-2-amine] | 65 nM | yes |
| Cc1cc(-c2nc(Nc3ccc(S(N)(=O)=O)cc3)sc2CO)ccn1 [SR-33524, 4-((5-(Hydroxmethyl)-4-(2-methylpyridin-4-yl)thiazol-2-yl)amino)benzenesulfonamide] | 60 nM | yes |
| NS(=O)(=O)c1ccc(Nc2nc(-c3ccnc(Cl)c3)c(CO)s2)cc1 [SR-33525, 4-((4-(2-Chloropyridin-4-yl)-5-(hydroxymethyl)thiazol-2-yl)amino)benzenesulfonamide] | 65 nM | yes |
| Cc1cc(-c2nc(Nc3ccc(S(=O)(=O)O)cc3)sc2CO)ccn1 [SR-33526, 4-((5-(Hydroxymethyl)-4-(2-methylpyridin-4-yl)thiazol-2-yl)amino)benzenesulfonic acid] | 150 nM | yes |
| O=S(=O)(O)c1ccc(Nc2nc(-c3ccnc(Cl)c3)c(CO)s2)cc1 [SR-33527, 4-((4-(2-Chloropyridin-4-yl)-5-(hydroxymethyl)thiazol-2-yl)amino)benzenesulfonic acid] | 160 nM | yes |
| Cc1cc(-c2nc(Nc3ccc(S(C)(=O)=O)c(Cl)c3)sc2CO)ccn1 [SR-33528, (2-((3-Chloro-4-(methylsulfonyl)phenyl)amino)-4-(2-methylpyridin-4-yl)thiazol-5-yl)methanol] | 80 nM | yes |
| CS(=O)(=O)c1ccc(Nc2nc(-c3ccnc(Cl)c3)c(CO)s2)cc1Cl [SR-33529, (2-((3-Chloro-4-(methylsulfonyl)phenyl)amino)-4-(2-chloropyridin-4-yl)thiazol-5-yl)methanol] | 80 nM | yes |
| Cc1cc(-c2csc(Nc3ccc(S(=O)(=O)O)cc3)n2)cc(C)n1 [SR-33784, 4-((4-(2,6-Dimethylpyridin-4-yl)thiazol-2-yl)amino)benzenesulfonic acid] | 25 nM | yes |
| O=S(=O)(O)c1ccc(Nc2nc(-c3ccncc3)cs2)cc1 [SR-33785, 4-((4-(Pyridin-4-yl)thiazol-2-yl)amino)benzenesulfonic acid] | 40 nM | yes |
| Cc1cc(-c2csc(Nc3ccc(S(C)(=O)=O)cc3)n2)cc(C)n1 [SR-33786, 4-(2,6-Dimethylpyridin-4-yl)-N-(4-(methylsulfonyl)phenyl)thiazol-2-amine] | 20 nM | yes |
| COc1cc(-c2csc(Nc3ccc(S(C)(=O)=O)c(Cl)c3)n2)cc(OC)n1 [SR-33787, N-(3-chloro-4-(methylsulfonyl)phenyl)-4-(2,6-dimethoxypyridin-4-yl)thiazol-2-amine] | 80 nM | yes |
| CS(=O)(=O)c1ccc(Nc2nc(-c3ccncc3)cs2)cc1 [SR-33788, N-(4-(methylsulfonyl)phenyl)-4-(pyridin-4-yl)thiazol-2-amine] | 80 nM | yes |
| COc1cc(-c2csc(Nc3ccc(S(C)(=O)=O)cc3)n2)cc(OC)n1 [SR-33789, 4-(2,6-Dimethoxypyridin-4-yl)-N-(4-(methylsulfonyl)phenyl)thiazol-2-amine] | 300 nM | yes |
| COc1cc(-c2csc(Nc3ccc(S(N)(=O)=O)cc3)n2)cc(OC)n1 [SR-33790, 4-((4-(2,6-Dimethoxypyridin-4-yl)thiazol-2-yl)amino)benzenesulfonamide] | 35 nM | yes |
| Cc1cc(-c2csc(Nc3ccc(S(N)(=O)=O)cc3)n2)cc(C)n1 [SR-33791, 4-((4-(2,6-Dimethylpyridin-4-yl)thiazol-2-yl)amino)benzenesulfonamide] | 25 nM | yes |
| Cc1cc(-c2csc(Nc3ccc(S(C)(=O)=O)cc3)n2)ccn1 [SR-33793, 4-(2-Methylpyridin-4-yl)-N-(4-(methylsulfonyl)phenyl)thiazol-2-amine] | 20 nM | yes |
| Cc1cc(-c2nc(Nc3ccc(S(C)(=O)=O)cc3)sc2CO)cc(C)n1 [SR-33794, (4-(2,6-Dimethylpyridin-4-yl)-2-((4-(methylsulfonyl)phenyl)amino)thiazol-5-yl)methanol] | 70 nM | yes |
| CCN(c1ccc(S(C)(=O)=O)cc1)c1nc(-c2ccnc(C)c2)cs1 [SR-35368, N-ethyl-4-(2-methylpyridin-4-yl)-N-(4-(methylsulfonyl)phenyl)thiazol-2-amine] | 230 nM |  |
| Cc1cc(-c2nc(Nc3ccc(S(C)(=O)=O)cc3)sc2COc2ccccc2)ccn1 [SR-35369, 4-(2-Methylpyridin-4-yl)-N-(4-(methylsulfonyl)phenyl)-5-(phenoxymethyl)thiazol-2-amine] | > 500 nM |  |
| Cc1cc(-c2nc(Nc3ccc(S(C)(=O)=O)cc3)sc2COc2ccc(F)cc2)ccn1 [SR-35370, 5-((4-Fluorophenoxy)methyl)-4-(2-methylpyridin-4-yl)-N-(4-(methylsulfonyl)phenyl)thiazol-2-amine] | > 500 nM |  |
| Cc1cc(-c2nc(Nc3ccc(S(C)(=O)=O)cc3)sc2CSc2ccccc2)ccn1 [SR-35371, 4-(2-Methylpyridin-4-yl)-N-(4-(methylsulfonyl)phenyl)-5-((phenylthio)methyl)thiazol-2-amine] | > 500 nM |  |
| CNS(=O)(=O)c1ccc(-c2csc(Nc3ccc(S(C)(=O)=O)c(C(F)(F)F)c3)n2)cc1 [SR-35734, N-methyl-4-(2-((4-(methylsulfonyl)-3-(trifluoromethyl)phenyl)amino)thiazol-4-yl)benzenesulfonamide] | 3 nM |  |
